Drawing on patent publication US11571423B2, “Small molecule modulators of human sting” (Curadev Pharma Limited, priority 2017, dated 2023), this text covers EC50 for 13 compounds.

Each structure is given as a SMILES string. Like-named read-outs stand apart in the source and are kept apart here.

The target of one test is hSTING(HAQ) (Homo sapiens, UniProt Q86WV6, G230A/H232R/R293Q/R71H). Put plainly: Luciferase reporter assay in HEK293T-hSTING-Luciferase cells, HAQ polymorph. It is filed as cell-based. To be noted: HAQ polymorph of human STING, EC50 range class. The source says: (§1) Stable Cell Line Generation • a) Stable STING expressing cells—Stable HEK293T STING-expressing cell lines were generated using plasmids purchased from Invivogen, CA, USA, that contain STING cDNA cloned into the pUNO-1 vector under hEF1-HTLV promoter and containing the Blasticidin selection cassette. The plasmids hSTING(R232), hSTING(H232), hSTING(HAQ) were directly procured from Invivogen while hSTING (AQ) and hSTING (Q) were derived from hSTING(HAQ) and hSTING (R232) plasmids respectively by using a PCR based site directed mutagenesis method. These vectors were individually transfected into HEK293T cells using Lipofectamine (Invitrogen) and transfected cells were selected under Blasticidin selection. These transfected cells were further subjected to clonal selection using the limiting dilution method to obtain clonally pure populations of HEK cells transfected with each of the above mentioned human STING variants. Only those clones were selected in which ligand independent activation of STING was minimal. • b) Stable Luciferase reporter gene expressing cells—Stable HEK293T Luciferase reporter gene expressing cell lines were generated using pCDNA4 plasmids under an IRF-inducible promoter. This promoter is comprised of five tandem interferon-stimulated response elements (ISRE) fused to an ISG54 minimal promoter. This vector was transfected into HEK293T cells using Lipofectamine (Invitrogen) and transfected cells were selected under Zeocin selection. These transfected cells were further subjected to clonal selection using the limiting dilution method to obtain clonally pure populations of HEK cells transfected the Luciferase reporter construct. Only those clones were selected in which ligand independent induction of luciferase was minimal.
(§2) 5×10^5 clonally selected HEK293T-hSTING-Luciferase cells were seeded in 384-well plates in growth medium and stimulated with novel compounds. After 20 hr of stimulation supernatant were removed and secretary reporter gene activity were measured using the Quanti-Luc detection system (Invivogen) on a Spectramax i3X luminometer.
(§3) In the tables below, EC50 value ranges for exemplary compounds are given.
(§4) Single nucleotide polymorphisms of human STING have been described, which can affect the functional potency of compounds that modulate the activity of the STING protein (see Yi et. al., PLoS One, October 2013, 8(10), e77846). The 5 major polymorphisms of human STING are shown in FIG. 1, with their prevalence in human populations indicated.
(§5) The tables below show the potency of selected compounds of the invention against the most common polymorphisms.

A further test concerns the target hSTING(R232) (Homo sapiens, UniProt Q86WV6, H232R). Put plainly: Luciferase reporter assay in HEK293T-hSTING-Luciferase cells, R232 (wild type) human STING. Type of test: cell-based. To be noted: 20 hr stimulation, read-out: R232 human activity (EC50 range). In outline: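 Clonal HEK293T cells stably expressing STING from a pUNO-1 plasmid plus an ISRE/ISG54-driven secreted luciferase reporter; 5×10^5 cells stimulated with compound for 20 hr. Supernatant luciferase read by luminescence, giving fold-induction over baseline and EC50.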

The next test has as its target hSTING(H232) (Homo sapiens, UniProt Q86WV6). Nature of the test: Luciferase reporter assay in HEK293T-hSTING-Luciferase cells, H232/REF polymorph. Type of test: cell-based. To be noted: H232/REF polymorph of human STING, EC50 range class.
Description: as §1, §2, §3, §4, §5

A further test deals with IRF pathway. Nature of the test: Reporter gene expression assay in THP1-Dual cells, IRF axis (secreted Lucia luciferase). It is filed as cell-based, human. The conditions noted are these: 20 hr stimulation, EC50 range class, read-out: THP-IRF activity. How it is done: (§6) THP1-Dual™ cells (Invivogen) were derived from the human THP-1 monocyte cell line by stable integration of two inducible reporter constructs. As a result, THP1-Dual™ cells allow the simultaneous study of the NF-κB pathway, by monitoring the activity of secreted SEAP, and the IRF pathway, by assessing the activity of a secreted luciferase (Lucia). 5×10^5 THP1-Dual™ cells were seeded in 384-well plates in growth medium and stimulated with novel compounds. After 20 hr of stimulation supernatants were removed and reporter proteins were readily measured in the cell culture supernatant using QUANTI-Blue™ (Invivogen), a SEAP detection reagent, and QUANTI-Luc™ (Invivogen), a luciferase detection reagent on a Spectramax i3X luminometer.
(§7) EC50 value ranges for exemplary compounds tested in the above assay are given.

Another test has as its system NF-κB pathway. Nature of the test: Reporter gene expression assay in THP1-Dual cells, NFkB axis (secreted SEAP). It is filed as cell-based, human. To be noted: 20 hr stimulation, EC50 range class, read-out: THP-NFκB activity. How it is done: as §6, §7
Test [1] has as its target cynomolgus monkey STING protein (Macaca fascicularis, UniProt A0A2R3XZA6). Put plainly: Luciferase reporter assay, cynomolgus monkey STING overexpressed in HEK293T cells. It is filed as cell-based. The conditions noted are these: cynomolgus monkey STING overexpressed in HEK293T cells; read-out: Cynomolgus monkey STING activity (EC50 range). In outline: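 HEK293T cells overexpressing cynomolgus STING with a secreted luciferase reporter were stimulated with compound for 20 hr. Supernatant reporter activity was then measured by Quanti-Luc luminescence, and EC50 values were derived.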

cynomolgus monkey STING protein, sequence (A0A2R3XZA6 entry or part of it): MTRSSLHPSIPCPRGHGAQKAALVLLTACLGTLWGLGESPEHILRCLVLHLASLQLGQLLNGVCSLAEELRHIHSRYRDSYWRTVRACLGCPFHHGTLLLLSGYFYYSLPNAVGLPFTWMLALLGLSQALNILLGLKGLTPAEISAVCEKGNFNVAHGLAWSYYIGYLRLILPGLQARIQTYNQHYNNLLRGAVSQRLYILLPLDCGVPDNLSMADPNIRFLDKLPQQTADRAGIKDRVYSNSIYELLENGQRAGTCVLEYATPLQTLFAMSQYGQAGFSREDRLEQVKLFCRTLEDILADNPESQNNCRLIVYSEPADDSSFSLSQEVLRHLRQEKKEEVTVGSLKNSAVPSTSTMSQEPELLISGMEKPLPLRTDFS
hSTING(HAQ), sequence (Q86WV6 whole entry R71H/G230A/H232R/R293Q): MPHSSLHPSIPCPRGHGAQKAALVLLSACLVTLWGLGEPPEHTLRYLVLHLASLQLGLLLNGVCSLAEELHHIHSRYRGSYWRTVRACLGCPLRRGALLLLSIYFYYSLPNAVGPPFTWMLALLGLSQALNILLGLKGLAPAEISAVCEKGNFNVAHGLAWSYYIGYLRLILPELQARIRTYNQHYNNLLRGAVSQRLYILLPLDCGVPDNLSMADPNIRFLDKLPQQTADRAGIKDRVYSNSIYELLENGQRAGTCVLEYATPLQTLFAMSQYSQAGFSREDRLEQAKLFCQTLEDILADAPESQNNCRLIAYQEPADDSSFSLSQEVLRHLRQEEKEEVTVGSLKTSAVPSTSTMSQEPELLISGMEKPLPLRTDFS
hSTING(H232), sequence (Q86WV6 whole entry): as the sequence (Q86WV6 whole entry R71H/G230A/H232R/R293Q) above, with H71R, A230G, R232H, Q293R counted along it
hSTING(R232), sequence (Q86WV6 whole entry H232R): as the sequence (Q86WV6 whole entry R71H/G230A/H232R/R293Q) above, with H71R, A230G, Q293R counted along it

With `C[C@H]1c2ccc(C(=O)NCc3c(F)cc(F)cc3F)cc2N(Cc2c(N)cccc2F)C(=O)N1C` [Example 182, (S)-1-(2-amino-6-fluorobenzyl)-3,4-dimethyl-2-oxo-N-(2,4,6-trifluorobenzyl)-1,2,3,4-tetrahydroquinazoline-7-carboxamide], the EC50 (on hSTING(HAQ); at hSTING(R232); at hSTING(H232); in the test on IRF pathway (Homo sapiens); with NF-κB pathway (Homo sapiens); in test [1]) was under 1 µM throughout.

For the compound `C[C@H]1c2ccc(C(=O)NCc3c(F)cc(F)cc3F)cc2N(Cc2c(O)ccc(F)c2F)C(=O)N1C` [Example 242, (S)-1-(2,3-difluoro-6-hydroxybenzyl)-3,4-dimethyl-2-oxo-N-(2,4,6-trifluorobenzyl)-1,2,3,4-tetrahydroquinazoline-7-carboxamide], the EC50 (at hSTING(HAQ); at hSTING(R232); on hSTING(H232); with IRF pathway (Homo sapiens); in the test on NF-κB pathway (Homo sapiens); in test [1]) was under 1 µM throughout.

As to `C[C@H]1c2ccc(C(=O)NCc3c(F)cc(F)cc3F)cc2N(Cc2c(F)ccc(OCCO)c2Cl)C(=O)N1C` [Example 137, (S)-1-(2-Chloro-6-fluoro-3-(2-hydroxyethoxy)benzyl)-3,4-dimethyl-2-oxo-N-(2,4,6-trifluorobenzyl)-1,2,3,4-tetrahydroquinazoline-7-carboxamide], the EC50 (on hSTING(HAQ); on hSTING(R232); at hSTING(H232); with IRF pathway (Homo sapiens); in the test with NF-κB pathway (Homo sapiens); in test [1]) was under 1 µM in each case.

With `Cc1nccc(CN2C(=O)N(C)[C@@H](C)c3ccc(C(=O)NCc4c(F)cc(F)cc4F)cc32)c1F` [Example 261, (S)-1-((3-fluoro-2-methylpyridin-4-yl)methyl)-3,4-dimethyl-2-oxo-N-(2,4,6-trifluorobenzyl)-1,2,3,4-tetrahydroquinazoline-7-carboxamide], the EC50 (at hSTING(HAQ); at hSTING(R232); on hSTING(H232); with IRF pathway (Homo sapiens); in the test with NF-κB pathway (Homo sapiens); in test [1]) was under 1 µM in each case.

As for `COc1ccc(F)c(CN2C(=O)N(C)[C@@H](C)c3ccc(C(=O)NCc4c(F)cc(F)cc4F)cc32)c1Cl` [Example 88, (S)-1-(2-Chloro-6-fluoro-3-methoxybenzyl)-3,4-dimethyl-2-oxo-N-(2,4,6-trifluorobenzyl)-1,2,3,4-tetrahydroquinazoline-7-carboxamide], the EC50 (at hSTING(HAQ); on hSTING(R232); on hSTING(H232); in the test on IRF pathway (Homo sapiens); in the test on NF-κB pathway (Homo sapiens); in test [1]) was under 1 µM throughout.

Turning to `CC1c2ccc(C(=O)NCc3c(F)cc(F)cc3F)cc2N(Cc2c(F)cccc2F)C(=O)N1C` (stereo not shown) [Example 206, 1-(2,6-difluorobenzyl)-3,4-dimethyl-2-oxo-N-(2,4,6-trifluorobenzyl)-1,2,3,4-tetrahydroquinazoline-7-carboxamide], the EC50 (on hSTING(HAQ); at hSTING(H232); in the test with IRF pathway (Homo sapiens); with NF-κB pathway (Homo sapiens); in test [1]) was under 1 µM in each case.

On to `C[C@H]1c2ccc(C(=O)NCc3c(F)cc(F)cc3F)cc2N(Cc2c(F)ccc(OCCCO)c2F)C(=O)N1C` [Example 257, (S)-1-(2,6-difluoro-3-(3-hydroxypropoxy)benzyl)-3,4-dimethyl-2-oxo-N-(2,4,6-trifluorobenzyl)-1,2,3,4-tetrahydroquinazoline-7-carboxamide], for which the EC50 on hSTING(HAQ) was under 1 µM; at hSTING(R232), under 1 µM; on hSTING(H232), under 1 µM; in the test on IRF pathway (Homo sapiens) it was under 1 µM; in the test on NF-κB pathway (Homo sapiens) it was under 1 µM; in test [1], 1 to 10 µM.

As to `COc1cnc(C)c(F)c1CN1C(=O)N(C)[C@@H](C)c2ccc(C(=O)NCc3c(F)cc(F)cc3F)cc21` [Example 296, (S)-1-((3-fluoro-5-methoxy-2-methylpyridin-4-yl)methyl)-3,4-dimethyl-2-oxo-N-(2,4,6-trifluorobenzyl)-1,2,3,4-tetrahydroquinazoline-7-carboxamide], the EC50 (at hSTING(HAQ); on hSTING(R232); at hSTING(H232); in the test with IRF pathway (Homo sapiens); with NF-κB pathway (Homo sapiens); in test [1]) was under 1 µM each time.

For the compound `Cc1ccc(Cl)c(CN2C(=O)N(C)[C@@H](C)c3ccc(C(=O)NCc4c(F)cc(F)cc4F)cc32)c1F` [Example 169, (S)-1-(6-chloro-2-fluoro-3-methylbenzyl)-3,4-dimethyl-2-oxo-N-(2,4,6-trifluorobenzyl)-1,2,3,4-tetrahydroquinazoline-7-carboxamide], the EC50 (on hSTING(HAQ); on hSTING(R232); on hSTING(H232); with IRF pathway (Homo sapiens); in the test on NF-κB pathway (Homo sapiens); in test [1]) was under 1 µM in each case.

`C[C@H]1c2ccc(C(=O)NCc3c(F)cc(F)cc3F)cc2N(Cc2c(F)ccc(OCCCO)c2Cl)C(=O)N1C` [Example 138, (S)-1-(2-Chloro-6-fluoro-3-(3-hydroxypropoxy)benzyl)-3,4-dimethyl-2-oxo-N-(2,4,6-trifluorobenzyl)-1,2,3,4-tetrahydroquinazoline-7-carboxamide]: the EC50 (on hSTING(HAQ); at hSTING(R232); at hSTING(H232); in the test on IRF pathway (Homo sapiens); in the test with NF-κB pathway (Homo sapiens); in test [1]) was under 1 µM throughout.

As for `COc1cccc(F)c1CN1C(=O)N(C)C(C)c2ccc(C(=O)NCc3c(F)cc(F)cc3F)cc21` (stereo not shown) [Example 154, 1-(2-fluoro-6-methoxybenzyl)-3,4-dimethyl-2-oxo-N-(2,4,6-trifluorobenzyl)-1,2,3,4-tetrahydroquinazoline-7-carboxamide], the EC50 (at hSTING(HAQ); at hSTING(R232); on hSTING(H232); in the test on IRF pathway; in the test on NF-κB pathway; in test [1]) was under 1 µM in each case.

As for `Cc1nccc(CN2C(=O)N(C)C(C)c3ccc(C(=O)NCc4c(F)cc(F)cc4F)cc32)c1F` (stereo not shown) [Example 180, 1-((3-fluoro-2-methylpyridin-4-yl)methyl)-3,4-dimethyl-2-oxo-N-(2,4,6-trifluorobenzyl)-1,2,3,4-tetrahydroquinazoline-7-carboxamide], the EC50 (on hSTING(HAQ); at hSTING(R232); on hSTING(H232); with IRF pathway (Homo sapiens); with NF-κB pathway (Homo sapiens); in test [1]) was under 1 µM throughout.

For the compound `CC1c2ccc(C(=O)NCc3c(F)cc(F)cc3F)cc2N(Cc2c(O)cccc2F)C(=O)N1C` (stereo not shown) [Example 171, 1-(2-fluoro-6-hydroxybenzyl)-3,4-dimethyl-2-oxo-N-(2,4,6-trifluorobenzyl)-1,2,3,4-tetrahydroquinazoline-7-carboxamide], the EC50 (on hSTING(HAQ); on hSTING(H232); in the test with IRF pathway (Homo sapiens); in the test with NF-κB pathway (Homo sapiens); in test [1]) was under 1 µM in each case.
